Source: US6689392B2, “Methods and compositions for controlling plant pathogen” (Agricare Ltd., priority 2001, dated 2004)
Like-named read-outs stand apart in the source and are kept apart here.

Tests used:
[1] = test system: Pythium aphanidermatum; test: Pythium aphanidermatum mycelial growth in vitro; assay type: cell-based; settings: recommended dosage of 0.07% of active ingredient; 24 hr, 25° C.; FIG. 6
[2] = test system: P. aphanidermatum; test: Pythium damping-off disease in cucumber seedlings; assay type: in vivo, Pythium aphanidermatum; settings: drench at 0.07% of active ingredient, after 10 days, FIG. 7
[3] = test system: P. infestans; assay type: cell-based, Phytophthora infestans; set-up: unit not given beside the values
[4] = test system: P. infestans; assay type: in vivo, Phytophthora infestans; set-up: ED90: unit not given beside the values
[5] = test system: P. infestans; assay type: in vivo, Phytophthora infestans; set-up: unit not given beside the values; settings: TOMATO; Table 2
[6] = test system: P. infestans; assay type: in vivo, Phytophthora infestans; set-up: unit not given beside the values; settings: POTATO; Table 2

**Q.** How did the “inhibition of radial growth in vitro” value [1] turn out when `CCO[PH](=O)O` [Fosetyl-Al] was run?
**A.** 50%

**Q.** What about the “plants survived in Pythium-inoculated flats” value [2] of the same compound?
**A.** 70-80%

**Q.** Which results are given for `OP(O)O` [H3PO3, Phosphorous Acid]?
**A.** ED90 [3]: 45; Inhibition (% of control) ([4]; Tomato, 0.01% active ingredient, Table 4): 13 % of control; Inhibition (% of control) ([4]; Tomato, 0.02% active ingredient, Table 4): 13 % of control; Inhibition (% of control) ([4]; Tomato, 0.05% active ingredient, Table 4): 19 % of control; Inhibition (% of control) ([4]; Tomato, 0.1% active ingredient, Table 4): 31 % of control; ED90 ([4]; in vivo): 2.52

**Q.** What does the source list for Potassium Phosphite [K3PO3]?
**A.** ED90 ([3]; tomato leaf discs, Table 1): 130; ED90 [5]: 1.10; ED90 [6]: 0.52; Inhibition (% of control) ([4]; Tomato, 0.12% active ingredient, Table 3): 50 % of control; Inhibition (% of control) ([4]; Tomato, 0.25% active ingredient, Table 3): 63 % of control; Inhibition (% of control) ([4]; Tomato, 0.5% active ingredient, Table 3): 86 % of control; Inhibition (% of control) ([4]; Tomato, 1.0% active ingredient, Table 3): 98 % of control; ED90 ([4]; Tomato, Table 3): 0.55
